Experimental data reported in ChEMBL document CHEMBL1151645, “Constituents of Solanum dasyphyllum Fruit” (J Nat Prod, 1985).
The source made the active and inactive calls. The rule behind the calls is not given here.

Species: Mus musculus
Test: Anticonvulsant activity in mouse
Assay type: functional, organism-based

SMILES | Activity
C[C@@H]1CC[C@@]2(NC1)O[C@H]1C[C@H]3[C@@H]4CC=C5C[C@@H](O[C@@H]6O[C@H](CO)[C@@H](O[C@@H]7O[C@@H](C)[C@H](O)[C@@H](O)[C@H]7O)[C@H](O)[C@H]6O[C@@H]6O[C@@H](C)[C@H](O)[C@@H](O)[C@H]6O)CC[C@]5(C)[C@H]4CC[C@]3(C)[C@H]1[C@@H]2C | inactive
C[C@@H]1CC[C@@]2(NC1)O[C@H]1C[C@H]3[C@@H]4CC=C5C[C@@H](O[C@@H]6O[C@H](CO)[C@H](O)[C@H](O[C@@H]7O[C@H](CO)[C@@H](O)[C@H](O)[C@H]7O)[C@H]6O[C@@H]6O[C@@H](C)[C@H](O)[C@@H](O)[C@H]6O)CC[C@]5(C)[C@H]4CC[C@]3(C)[C@H]1[C@@H]2C | inactive
